Calls of active or inactive are those of the source. The calls are words filed in the database; no cut-off is given here.
Tests used:
[1] = target: T1, NAD-dependent protein deacetylase sirtuin-1 (Homo sapiens) (UniProt Q96EB6); assay: Activation of SIRT1 in human U2OS cells assessed as increase in deacetylation of doxorubicin-induced acetylated p53 at 0.01 to 1 uM by Western blot analysis; assay type: cell-based
T1 sequence (whole entry): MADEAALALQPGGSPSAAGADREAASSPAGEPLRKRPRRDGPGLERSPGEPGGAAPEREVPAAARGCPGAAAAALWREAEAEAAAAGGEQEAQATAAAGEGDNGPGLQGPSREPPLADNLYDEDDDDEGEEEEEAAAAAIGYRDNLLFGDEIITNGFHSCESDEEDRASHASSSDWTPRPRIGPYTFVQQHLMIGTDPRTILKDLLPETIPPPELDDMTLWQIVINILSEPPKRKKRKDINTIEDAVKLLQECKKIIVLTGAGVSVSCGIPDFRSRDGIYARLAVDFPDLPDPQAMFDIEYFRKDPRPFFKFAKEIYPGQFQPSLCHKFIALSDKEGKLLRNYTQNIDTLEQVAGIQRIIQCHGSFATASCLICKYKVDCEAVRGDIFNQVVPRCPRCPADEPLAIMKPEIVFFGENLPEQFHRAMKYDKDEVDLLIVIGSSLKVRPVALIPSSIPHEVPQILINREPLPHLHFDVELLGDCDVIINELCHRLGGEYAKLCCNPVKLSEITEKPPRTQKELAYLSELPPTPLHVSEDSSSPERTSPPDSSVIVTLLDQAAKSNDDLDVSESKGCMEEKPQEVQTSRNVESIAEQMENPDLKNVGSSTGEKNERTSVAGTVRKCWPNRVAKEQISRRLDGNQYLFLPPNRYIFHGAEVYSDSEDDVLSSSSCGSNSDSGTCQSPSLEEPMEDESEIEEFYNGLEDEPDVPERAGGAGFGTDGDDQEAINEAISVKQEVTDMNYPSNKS

[2] = target: T1, NAD-dependent protein deacetylase sirtuin-1 (Homo sapiens); assay: Activation of SIRT1 in human U2OS cells assessed as increase in ALP activity using p-NPP as substrate measured after 30 mins by colorimetric method; assay type: cell-based
[3] = target: T1, NAD-dependent protein deacetylase sirtuin-1 (Homo sapiens); assay: Activation of SIRT1 (unknown origin) by mass spectrophotometric analysis
[4] = Octanol-water apparent partition coefficient, log D of the compound at pH 7.4 after 24 hrs by shake flask method; assay type: physicochemical

## Cn1nc(-c2ccc(C(=O)N[C@H]3CC[C@H](O)CC3)cc2)c2cc(NCc3cc(F)c(F)cc3S(C)(=O)=O)ccc21
[1]
  Activity: Active
[2]
  EC30: 0.65 nM
[3]
  EC150: 0.4 µM
[4]
  logD at 24 h: 1.37

## Cc1cc(CNc2ccc3c(c2)c(-c2ccc(C(=O)N[C@H]4CC[C@H](O)CC4)cc2)nn3C)c(S(C)(=O)=O)cc1F
[3]
  EC150: > 20 µM

## Cc1cc(S(C)(=O)=O)c(CNc2ccc3c(c2)c(-c2ccc(C(=O)N[C@H]4CC[C@H](O)CC4)cc2)nn3C)cc1F
[3]
  EC150: 0.4 µM
[4]
  logD at 24 h: 1.41

## COCCS(=O)(=O)c1ccccc1CNc1ccc2c(c1)c(-c1ccc(C(=O)N[C@H]3CC[C@H](O)CC3)cc1)nn2C
[3]
  EC150: 7.23 µM

## Cn1nc(-c2ccc(C(=O)NCCc3ccn[nH]3)cc2)c2cc(NCc3cc(F)ccc3S(C)(=O)=O)ccc21
[3]
  EC150: 1.36 µM

## Cn1nc(-c2ccc3ccccc3c2)c2cc(NCc3cc(F)ccc3S(C)(=O)=O)ccc21
[3]
  EC150: 2.88 µM

## Cn1nc(-c2ccc(C(=O)N[C@H]3CC[C@H](O)CC3)cc2)c2cc(NCc3cc(F)ccc3S(C)(=O)=O)ccc21
[3]
  EC150: 0.95 µM

## CCCS(=O)(=O)c1ccccc1CNc1ccc2c(c1)c(-c1ccc(C(=O)N[C@H]3CC[C@H](O)CC3)cc1)nn2C
[3]
  EC150: 4.54 µM

## CCS(=O)(=O)c1ccccc1CNc1ccc2c(c1)c(-c1ccc(C(=O)N[C@H]3CC[C@H](O)CC3)cc1)nn2C
[3]
  EC150: 2.4 µM

## CNC(=O)c1ccc(-c2nn(C)c3ccc(NCc4cc(F)ccc4S(C)(=O)=O)cc23)cc1
[3]
  EC150: 2.92 µM

## Cn1nc(-c2cnc3ccccc3c2)c2cc(NCc3cc(F)ccc3S(C)(=O)=O)ccc21
[3]
  EC150: 1.49 µM

## Cn1nc(-c2cc3ccccc3s2)c2cc(NCc3cc(F)ccc3S(C)(=O)=O)ccc21
[3]
  EC150: 1.52 µM

## Cn1nc(-c2ccc(C(=O)NCC3CCCO3)cc2)c2cc(NCc3cc(F)ccc3S(C)(=O)=O)ccc21 (configuration not stated)
[3]
  EC150: 1.46 µM

Reference: ChEMBL document CHEMBL4177597, “A series of novel indazole derivatives of Sirt 1 activator as osteogenic regulators” (Bioorg Med Chem Lett, 2017)
